Laboratory results published in ChEMBL document CHEMBL3826953, “Development of Autotaxin Inhibitors: An Overview of the Patent and Primary Literature” (J Med Chem, 2016).

Experiments:
Autotaxin [1] = biological target: Autotaxin (Rattus norvegicus, UniProt Q64610); experiment: Inhibition of ATX in rat plasma assessed as inhibition of LPA production after 2 hrs by LC-MS/MS analysis; format: cell-free
Autotaxin [2] = biological target: T1, Autotaxin (Mus musculus, UniProt Q9R1E6); experiment: Inhibition of ATX in mouse plasma assessed as inhibition of LPA production after 2 hrs by LC-MS/MS analysis; format: cell-free
Autotaxin [3] = biological target: T1, Autotaxin; experiment: Inhibition of recombinant mouse ATX using lysophosphatidylcholine as substrate by choline release assay
[4] = Half life in human; format: ADME, organism-based; conditions: in vivo
Autotaxin [5] = biological target: T2, Autotaxin (Homo sapiens, UniProt Q13822); experiment: Inhibition of recombinant ATX (unknown origin) expressed in baculovirus infected Hi5 cells using L-alpha-lysophosphatidylcholine as substrate preincubated for 30 mins followed by substrate addition measured after 90 mins by AmplexRed dye based fluorescence plate reader analysis; conditions: BTI-TN-5B1-4
[6] = Effective half life in Lewis rat at 1 mg/kg, iv measured up to 24 hrs by LC-MS/MS analysis; format: ADME, organism-based; conditions: in vivo, read-out: t1/2eff (converted)
[7] = Clearance in Lewis rat at 1 mg/kg, iv measured up to 24 hrs by LC-MS/MS analysis; format: ADME, organism-based; conditions: in vivo
[8] = Oral bioavailability in Lewis rat at 1 to 100 mg/kg administered through gavage measured up to 24 hrs by LC-MS/MS analysis; format: ADME, organism-based; conditions: in vivo
Rattus norvegicus [9] = experiment: In vivo inhibition of ATX in Lewis rat air pouch model of inflammation assessed as inhibition of carrageenan-induced LPA production in plasma at 100 mg/kg, po administered through gavage 1 hr before carrageenan injection measured after 3 hrs by LC-MS/MS analysis relative to control; format: functional
Rattus norvegicus [10] = experiment: In vivo inhibition of ATX in Lewis rat air pouch model of inflammation assessed as inhibition of carrageenan-induced LPA production in pouch fluid at 100 mg/kg, po administered through gavage 1 hr before carrageenan injection measured after 3 hrs by LC-MS/MS analysis relative to control; format: functional
[11] = Plasma concentration in Lewis rat air pouch model of inflammation at 3 mg/kg, po administered through gavage 1 hr before carrageenan injection measured after 3 hrs by LC-MS/MS analysis relative to control; format: ADME, organism-based
[12] = Plasma concentration in Lewis rat air pouch model of inflammation at 100 mg/kg, po administered through gavage 1 hr before carrageenan injection measured after 3 hrs by LC-MS/MS analysis relative to control; format: ADME, organism-based
Autotaxin [13] = biological target: T2, Autotaxin; conditions: 10 uM
Description: Inhibition of recombinant human ATX at 10 uM using lysophosphatidylcholine (14:0) as substrate measured after 2 hrs by AmplexRed dye based fluorescence assay relative to control

Autotaxin [14] = biological target: T2, Autotaxin; experiment: Inhibition of recombinant human ATX using CPF4 as substrate measured after 3 hrs by fluorescence assay
Autotaxin [15] = biological target: T2, Autotaxin; experiment: Inhibition of recombinant ATX in human Hep3B cells using lysophosphatidylcholine as substrate preincubated for 15 mins followed by substrate addition measured after 1.5 to 3 hrs by choline release assay; format: cell-based, Hep 3B2
Autotaxin [16] = biological target: T2, Autotaxin; experiment: Inhibition of recombinant ATX in human […] cells using lysophosphatidylcholine as substrate preincubated for 15 mins followed by substrate addition measured after 90 mins by choline release assay; format: cell-based
Autotaxin [17] = biological target: T2, Autotaxin; experiment: Inhibition of human recombinant ATX using FS3 as substrate incubated for 2 hrs by fluorescence assay
Autotaxin [18] = biological target: T2, Autotaxin; experiment: Mixed-type inhibition of human recombinant ATX using FS3 as substrate assessed as enzyme-substrate-inhibitor complex incubated for 2 hrs by Michaelis-Menten equation analysis
Autotaxin [19] = biological target: T2, Autotaxin; experiment: Mixed-type inhibition of human recombinant ATX using FS3 as substrate assessed as enzyme-inhibitor complex incubated for 2 hrs by Michaelis-Menten equation analysis
Autotaxin [20] = biological target: T2, Autotaxin; experiment: Inhibition of recombinant ATX in human MDA-MB-435 cells at 10 uM using FS3 as substrate fluorescence assay relative to control; format: cell-based
Autotaxin [21] = biological target: T2, Autotaxin; experiment: Inhibition of recombinant human C-terminal V5/His6-tagged ATX expressed in HEK293 cells assessed as residual activity at 1 uM using oleoyl-lysophosphatidylcholine as substrate incubated for 16 hrs by choline release assay relative to control
Autotaxin [22] = biological target: T2, Autotaxin; experiment: Inhibition of recombinant human C-terminal V5/His6-tagged ATX expressed in HEK293 cells assessed as residual activity at 10 uM using oleoyl-lysophosphatidylcholine as substrate incubated for 16 hrs by choline release assay relative to control
Autotaxin [23] = biological target: T2, Autotaxin; experiment: Inhibition of recombinant human C-terminal V5/His6-tagged ATX expressed in HEK293 cells assessed as residual activity at 100 uM using oleoyl-lysophosphatidylcholine as substrate incubated for 16 hrs by choline release assay relative to control
Autotaxin [24] = biological target: T2, Autotaxin; experiment: Inhibition of recombinant human C-terminal V5/His6-tagged ATX expressed in HEK293 cells assessed as choline release at 0.5 uM using oleoyl-lysophosphatidylcholine as substrate incubated for 18 hrs by non-linear regression analysis
Autotaxin [25] = biological target: T2, Autotaxin; experiment: Inhibition of recombinant human C-terminal V5/His6-tagged ATX expressed in HEK293 cells assessed as choline release at 0.5 uM using oleoyl-lysophosphatidylcholine as substrate incubated for 18 hrs by linear regression analysis
Autotaxin [26] = biological target: T2, Autotaxin; experiment: Inhibition of recombinant human C-terminal His-tagged ATX expressed in HEK293E cells using lysophosphatidylcholine as substrate preincubated with enzyme followed by substrate addition measured after 1 hr by AmplexRed dye based fluorescence assay
Autotaxin [27] = biological target: T2, Autotaxin; experiment: Inhibition of human recombinant ATX using FS3 as substrate incubated for 30 mins by fluorescence assay

## CCc1nc2c(C)cc(N3CCN(CC(=O)N4CC(O)C4)CC3)cn2c1N(C)c1nc(-c2ccc(F)cc2)c(C#N)s1 [ZIRITAXESTAT]
Autotaxin [1]
  IC50: ≥ 500 nM
Autotaxin [2]
  IC50: ≥ 500 nM
Autotaxin [3]
  IC50: 224 nM
[4]
  half-life: 5 h

## O=C(OCc1cc(Cl)cc(Cl)c1)N1CCC(N2CCN(C(=O)c3ccc4[nH]c(=O)oc4c3)CC2)CC1
Autotaxin [5]
  INH: < 1 µM

## O=C(CCN1CCN(C(=O)OCc2cc(Cl)cc(Cl)c2)CC1)c1ccc2[nH]c(=O)oc2c1
[6]
  half-life: 1.2 h
[7]
  clearance: 31 mL/min/kg
[8]
  bioavailability: 43%
Rattus norvegicus [9]
  inhibition in vivo at 100 mg/kg: ≤ 95%
Rattus norvegicus [10]
  inhibition in vivo at 100 mg/kg: ≤ 95%
[11]
  concentration at 3 h: 79 nM
[12]
  concentration at 3 h: 2680 nM

## O=C(Nc1cccc(F)c1)c1cc(S(=O)(=O)N2CCOCC2)c(Cl)cc1Cl
Autotaxin [13]
  inhibition: 41%
Autotaxin [14]
  IC50: 31.4 nM

## N#C/C(=C\c1nn(Cc2ccc(F)cc2)c2cc(Cl)ccc12)c1ccc(C(=O)O)cc1
Autotaxin [15]
  IC50: < 500 nM

## Cc1c(Sc2cccc(C(=O)O)n2)c2ccc(Cl)cc2n1-c1cnn(C)c1
Autotaxin [16]
  IC50: < 300 nM

## CCCCCCCCCCCCCCc1ccc(CP(=O)(O)O)cc1
Autotaxin [17]
  IC50: 170 nM
Autotaxin [18]
  Ki: 280 nM
Autotaxin [19]
  Ki: 270 nM

## CCn1cc(C(=O)O)c(=O)c2cnc(N3CCN(C(=S)NCc4cc(Cl)cc(Cl)c4)CC3)nc21
Autotaxin [20]
  inhibition: 0%

## CCCCCCCCCCCCCCCC(=O)N[C@@H](Cc1ccc(OCc2ncc(C)c(OC)c2C)cc1)[C@@H](O)CP(=O)(O)O
Autotaxin [21]
  Activity: 27%
Autotaxin [22]
  Activity: 13%
Autotaxin [23]
  Activity: 6%
Autotaxin [24]
  Ki: 1300 nM
Autotaxin [25]
  Ki: 390 nM

## O=C(c1cc(-c2cnn[nH]2)ccn1)N1CCc2nc(NC3Cc4ccccc4C3)ncc2C1
Autotaxin [26]
  IC50: < 1.7 nM

## O=C(CCc1nc2ccccc2s1)N1CCc2ncnc(Cc3ccc(F)cc3)c2C1
Autotaxin [27]
  IC50: 2.59 nM
